These results are taken from patent US12403174B2, “Immunomodulators” (Bristol-Myers Squibb Company, priority 2020, dated 2025).

The structures appear in SMILES notation. *1 amine or outer side, *2 acyl side, *3 side chain or, on linkers, in order; H or OH if unused. Where a SMILES comes first, the peptide text is derived from it. Bridges are numbered along the chain shown (N, C = ends). [ ]: non-standard residue; d: D form. The star is where a group is joined. Trp(1-CH2COOH) = N[C@@H](Cc1cn(CC(=O)O)c2ccccc12)C(=O)O; X6 = CCOC(=O)Cn1cc(C[C@H](N[*:1])C(=O)[*:2])c2ccccc21; X3 = CCOC(=O)c1ccc(Nc2c(*)c(=O)c2=O)cc1; X8 = O=C(O)c1ccc(Nc2c(*)c(=O)c2=O)cc1; X1 = O=c1c(Nc2c(Cl)cccc2Cl)c(*)c1=O; Hyp = O=C(O)[C@@H]1C[C@@H](O)CN1; NMeNle = CCCC[C@H](NC)C(=O)O; X2 = CC(C)Oc1c(*)c(=O)c1=O; X5 = CN(C)c1c(*)c(=O)c1=O; NMeA = CN[C@@H](C)C(=O)O; Orn = NCCC[C@H](N)C(=O)O; X7 = CCOc1c(*)c(=O)c1=O; Dap = NC[C@H](N)C(=O)O; X4 = COc1c(*)c(=O)c1=O

As usually defined, the IC50 is the concentration needed to halve the response being measured. Higher therefore signals weaker potency in that assay.

T1 sequence (Q9NZQ7 18-239): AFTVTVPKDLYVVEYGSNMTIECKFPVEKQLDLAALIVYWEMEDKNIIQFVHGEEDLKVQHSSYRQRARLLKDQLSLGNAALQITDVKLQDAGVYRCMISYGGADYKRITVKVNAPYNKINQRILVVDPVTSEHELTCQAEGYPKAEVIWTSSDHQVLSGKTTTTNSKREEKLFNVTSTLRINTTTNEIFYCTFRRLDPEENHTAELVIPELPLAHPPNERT

The experiment addresses T1, PD-1/PD-L1 (Homo sapiens, UniProt Q9NZQ7).
T1 construct: TVMV protease site linker (C); made in house; host or cells: HEK293T cells
In words: PD-1/PD-L1 Homogenous Time-Resolved Fluorescence (HTRF) binding assay. The conditions noted are these: PD-L1-His 10 nM, PD-1-Ig 20 nM; soluble extracellular domains. From the text:
The ability of the compounds of formula (I) to bind to PD-L1 was investigated using a PD-1/PD-L1 Homogenous Time-Resolved Fluorescence (HTRF) binding assay.
The interaction of PD-1 and PD-L1 can be assessed using soluble, purified preparations of the extracellular domains of the two proteins. The PD-1 and PD-L1 protein extracellular domains were expressed as fusion proteins with detection tags, for PD-1, the tag was the Fc portion of Immunoglobulin (PD-1-Ig) and for PD-L1 it was the 6 histidine motif (PD-L1-His). All binding studies were performed in an HTRF assay buffer consisting of dPBS supplemented with 0.1% […] bovine serum albumin and 0.05% (v/v) Tween-20. For the h/PD-L1-His binding assay, inhibitors were pre-incubated with PD-L1-His (10 nM final) for 15 m in 4 μl of assay buffer, followed by addition of PD-1-Ig (20 nM final) in 1 μl of assay buffer and further incubation for 15 m. HTRF detection was achieved using europium crypate-labeled anti-Ig (1 nM final) and allophycocyanin (APC) labeled anti-His (20 nM final). Antibodies were diluted in HTRF detection buffer and 5 μl was dispensed on top of the binding reaction. The reaction mixture was allowed to equilibrate for 30 minutes and the resulting signal (665 nm/620 nm ratio) was obtained using an EnVision fluorometer. Additional binding assays were established between the human proteins PD-1-Ig/PD-L2-His (20 & 5 nM, respectively) and CD80-His/PD-L1-Ig (100 & 10 nM, respectively).
Recombinant Proteins: Human PD-1 (25-167) with a C-terminal human Fc domain of immunoglobulin G (Ig) epitope tag [hPD-1 (25-167)-3S-IG] and human PD-L1 (18-239) with a C-terminal His epitope tag [hPD-L1(18-239)-TVMV-His] were expressed in HEK293T cells and purified sequentially by ProteinA affinity chromatography and size exclusion chromatography. Human PD-L2-His and CD80-His was obtained through commercial sources.
Table 1 lists the IC50 values for representative examples of this disclosure measured in the PD-1/PD-L1 Homogenous Time-Resolved Fluorescence (HTRF) binding assay.
A general note: TR-FRET usually uses a lanthanide donor and a delayed reading to cut background.
Compound `CCCC[C@H]1C(=O)N(C)[C@@H](CCCC)C(=O)N[C@@H](CC(C)C)C(=O)N[C@H](C(=O)NCC(N)=O)CSCC(=O)N[C@@H](Cc2ccc(O)cc2)C(=O)N(C)[C@@H](C)C(=O)N[C@@H](CC(N)=O)C(=O)N2CCC[C@H]2C(=O)N[C@@H](CNc2c(OC)c(=O)c2=O)C(=O)N[C@@H](CC(C)C)C(=O)N2C[C@H](O)C[C@H]2C(=O)N[C@@H](Cc2c[nH]c3ccccc23)C(=O)N[C@@H](CCCN)C(=O)N[C@@H](Cc2cn(CC(=O)O)c3ccccc23)C(=O)N1C` [Compound 1002] ({CH2CO}-Y[NMeA]NP[Dap](X4)L[Hyp]W[Orn][Trp(1-CH2COOH)][NMeNle][NMeNle]LCG-NH2; thioether N-14) registered a half-inhibitory concentration (IC50) of 3.6 nM.
With `CCCC[C@H]1C(=O)N(C)[C@@H](CCCC)C(=O)N[C@@H](CC(C)C)C(=O)N[C@H](C(=O)NCC(N)=O)CSCC(=O)N[C@@H](Cc2ccc(O)cc2)C(=O)N(C)[C@@H](C)C(=O)N[C@@H](CC(N)=O)C(=O)N2CCC[C@H]2C(=O)N[C@@H](CNc2c(Nc3ccc(C(=O)OCC)cc3)c(=O)c2=O)C(=O)N[C@@H](CC(C)C)C(=O)N2C[C@H](O)C[C@H]2C(=O)N[C@@H](Cc2c[nH]c3ccccc23)C(=O)N[C@@H](CCCNc2c(Nc3ccc(C(=O)OCC)cc3)c(=O)c2=O)C(=O)N[C@@H](Cc2cn(CC(=O)O)c3ccccc23)C(=O)N1C` [Compound 1005] ({CH2CO}-Y[NMeA]NP[Dap](X3)L[Hyp]W[Orn](X3)[Trp(1-CH2COOH)][NMeNle][NMeNle]LCG-NH2; thioether N-14) the figure was 1.4 nM; with `CCCC[C@H]1C(=O)N(C)[C@@H](CCCC)C(=O)N[C@@H](CC(C)C)C(=O)N[C@H](C(=O)NCC(N)=O)CSCC(=O)N[C@@H](Cc2ccc(O)cc2)C(=O)N(C)[C@@H](C)C(=O)N[C@@H](CC(N)=O)C(=O)N2CCC[C@H]2C(=O)N[C@@H](CNc2c(OCC)c(=O)c2=O)C(=O)N[C@@H](CC(C)C)C(=O)N2C[C@H](O)C[C@H]2C(=O)N[C@@H](Cc2c[nH]c3ccccc23)C(=O)N[C@@H](CCCNc2c(OCC)c(=O)c2=O)C(=O)N[C@@H](Cc2cn(CC(=O)OCC)c3ccccc23)C(=O)N1C` [Compound 1003] ({CH2CO}-Y[NMeA]NP[Dap](X7)L[Hyp]W[Orn](X7)[X6][NMeNle][NMeNle]LCG-NH2; thioether N-14), 16 nM.
The result for `CCCC[C@H]1C(=O)N(C)[C@@H](CCCC)C(=O)N[C@@H](CC(C)C)C(=O)N[C@H](C(=O)NCC(N)=O)CSCC(=O)N[C@@H](Cc2ccc(O)cc2)C(=O)N(C)[C@@H](C)C(=O)N[C@@H](CC(N)=O)C(=O)N2CCC[C@H]2C(=O)N[C@@H](CNc2c(Nc3c(Cl)cccc3Cl)c(=O)c2=O)C(=O)N[C@@H](CC(C)C)C(=O)N2C[C@H](O)C[C@H]2C(=O)N[C@@H](Cc2c[nH]c3ccccc23)C(=O)N[C@@H](CCCNc2c(Nc3c(Cl)cccc3Cl)c(=O)c2=O)C(=O)N[C@@H](Cc2cn(CC(=O)O)c3ccccc23)C(=O)N1C` [Compound 1006] ({CH2CO}-Y[NMeA]NP[Dap](X1)L[Hyp]W[Orn](X1)[Trp(1-CH2COOH)][NMeNle][NMeNle]LCG-NH2; thioether N-14) reads 2.8 nM; that for `CCCC[C@H]1C(=O)N(C)[C@@H](CCCC)C(=O)N[C@@H](CC(C)C)C(=O)N[C@H](C(=O)NCC(N)=O)CSCC(=O)N[C@@H](Cc2ccc(O)cc2)C(=O)N(C)[C@@H](C)C(=O)N[C@@H](CC(N)=O)C(=O)N2CCC[C@H]2C(=O)N[C@@H](CNc2c(OC)c(=O)c2=O)C(=O)N[C@@H](CC(C)C)C(=O)N2C[C@H](O)C[C@H]2C(=O)N[C@@H](Cc2c[nH]c3ccccc23)C(=O)N[C@@H](CCCNc2c(OC)c(=O)c2=O)C(=O)N[C@@H](Cc2cn(CC(=O)O)c3ccccc23)C(=O)N1C` [Compound 1001] ({CH2CO}-Y[NMeA]NP[Dap](X4)L[Hyp]W[Orn](X4)[Trp(1-CH2COOH)][NMeNle][NMeNle]LCG-NH2; thioether N-14), 4.2 nM.
The result for `CCCC[C@H]1C(=O)N(C)[C@@H](CCCC)C(=O)N[C@@H](CC(C)C)C(=O)N[C@H](C(=O)NCC(N)=O)CSCC(=O)N[C@@H](Cc2ccc(O)cc2)C(=O)N(C)[C@@H](C)C(=O)N[C@@H](CC(N)=O)C(=O)N2CCC[C@H]2C(=O)N[C@@H](CNc2c(Nc3ccc(C(=O)O)cc3)c(=O)c2=O)C(=O)N[C@@H](CC(C)C)C(=O)N2C[C@H](O)C[C@H]2C(=O)N[C@@H](Cc2c[nH]c3ccccc23)C(=O)N[C@@H](CCCNc2c(Nc3ccc(C(=O)O)cc3)c(=O)c2=O)C(=O)N[C@@H](Cc2cn(CC(=O)O)c3ccccc23)C(=O)N1C` [Compound 1009] ({CH2CO}-Y[NMeA]NP[Dap](X8)L[Hyp]W[Orn](X8)[Trp(1-CH2COOH)][NMeNle][NMeNle]LCG-NH2; thioether N-14) reads 2.9 nM; that for `CCCC[C@H]1C(=O)N(C)[C@@H](CCCC)C(=O)N[C@@H](CC(C)C)C(=O)N[C@H](C(=O)NCC(N)=O)CSCC(=O)N[C@@H](Cc2ccc(O)cc2)C(=O)N(C)[C@@H](C)C(=O)N[C@@H](CC(N)=O)C(=O)N2CCC[C@H]2C(=O)N[C@@H](CNc2c(N(C)C)c(=O)c2=O)C(=O)N[C@@H](CC(C)C)C(=O)N2C[C@H](O)C[C@H]2C(=O)N[C@@H](Cc2c[nH]c3ccccc23)C(=O)N[C@@H](CCCNc2c(N(C)C)c(=O)c2=O)C(=O)N[C@@H](Cc2cn(CC(=O)O)c3ccccc23)C(=O)N1C` [Compound 1004] ({CH2CO}-Y[NMeA]NP[Dap](X5)L[Hyp]W[Orn](X5)[Trp(1-CH2COOH)][NMeNle][NMeNle]LCG-NH2; thioether N-14), 4.3 nM; that for `CCCC[C@H]1C(=O)N(C)[C@@H](CCCC)C(=O)N[C@@H](CC(C)C)C(=O)N[C@H](C(=O)NCC(N)=O)CSCC(=O)N[C@@H](Cc2ccc(O)cc2)C(=O)N(C)[C@@H](C)C(=O)N[C@@H](CC(N)=O)C(=O)N2CCC[C@H]2C(=O)N[C@@H](CNc2c(OC(C)C)c(=O)c2=O)C(=O)N[C@@H](CC(C)C)C(=O)N2C[C@H](O)C[C@H]2C(=O)N[C@@H](Cc2c[nH]c3ccccc23)C(=O)N[C@@H](CCCNc2c(OC(C)C)c(=O)c2=O)C(=O)N[C@@H](Cc2cn(CC(=O)O)c3ccccc23)C(=O)N1C` [Compound 1007] ({CH2CO}-Y[NMeA]NP[Dap](X2)L[Hyp]W[Orn](X2)[Trp(1-CH2COOH)][NMeNle][NMeNle]LCG-NH2; thioether N-14), 1.6 nM.
